Test results from article PMC4457528, “Identification of Novel Small Molecule Inhibitors of Oncogenic RET Kinase” (PLoS ONE, 2015).
Where two headings read alike, the source gives them in different places.

Experiments:
Assay in all cases: KinomeScan kinase panel, single concentration 10 µM
Format in all cases: binding
KinomeScan kinase panel [1] = biological target: T1, KinomeScan kinase panel (Homo sapiens, UniProt P52564); conditions: MEK6, 10 µM; read-out: score (%)
T1 construct: purchased DiscoveRx (KinomeScan)
T1 sequence (P52564 1-334): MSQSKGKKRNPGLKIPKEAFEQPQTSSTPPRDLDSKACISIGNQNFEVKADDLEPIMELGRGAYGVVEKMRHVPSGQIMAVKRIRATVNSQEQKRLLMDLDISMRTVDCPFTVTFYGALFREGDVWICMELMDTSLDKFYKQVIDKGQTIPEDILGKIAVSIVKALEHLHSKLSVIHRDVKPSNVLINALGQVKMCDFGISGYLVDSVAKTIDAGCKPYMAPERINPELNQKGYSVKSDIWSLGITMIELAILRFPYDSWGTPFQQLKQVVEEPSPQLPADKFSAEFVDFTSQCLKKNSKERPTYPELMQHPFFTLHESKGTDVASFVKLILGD

KinomeScan kinase panel [2] = biological target: T2, KinomeScan kinase panel (Homo sapiens, UniProt P36897); conditions: read-out: score (%)
T2 construct: purchased DiscoveRx (KinomeScan)
T2 sequence (P36897 34-503): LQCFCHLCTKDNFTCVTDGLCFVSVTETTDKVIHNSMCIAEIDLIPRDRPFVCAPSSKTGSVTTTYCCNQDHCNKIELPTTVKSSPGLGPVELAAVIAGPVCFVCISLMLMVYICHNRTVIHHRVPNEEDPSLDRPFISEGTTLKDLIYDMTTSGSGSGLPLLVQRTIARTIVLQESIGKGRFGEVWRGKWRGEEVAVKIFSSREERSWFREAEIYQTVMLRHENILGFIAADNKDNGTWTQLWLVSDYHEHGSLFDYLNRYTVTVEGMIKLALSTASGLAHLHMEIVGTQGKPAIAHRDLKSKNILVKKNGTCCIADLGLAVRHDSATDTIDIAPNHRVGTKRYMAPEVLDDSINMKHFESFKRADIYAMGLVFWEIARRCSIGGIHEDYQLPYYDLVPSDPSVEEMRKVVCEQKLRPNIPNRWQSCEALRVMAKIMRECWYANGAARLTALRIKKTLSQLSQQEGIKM

KinomeScan kinase panel [3] = biological target: T3, KinomeScan kinase panel (Homo sapiens, UniProt P29376); conditions: LTK, 10 µM; read-out: score (%)
T3 construct: purchased DiscoveRx (KinomeScan)
T3 sequence (P29376 17-864): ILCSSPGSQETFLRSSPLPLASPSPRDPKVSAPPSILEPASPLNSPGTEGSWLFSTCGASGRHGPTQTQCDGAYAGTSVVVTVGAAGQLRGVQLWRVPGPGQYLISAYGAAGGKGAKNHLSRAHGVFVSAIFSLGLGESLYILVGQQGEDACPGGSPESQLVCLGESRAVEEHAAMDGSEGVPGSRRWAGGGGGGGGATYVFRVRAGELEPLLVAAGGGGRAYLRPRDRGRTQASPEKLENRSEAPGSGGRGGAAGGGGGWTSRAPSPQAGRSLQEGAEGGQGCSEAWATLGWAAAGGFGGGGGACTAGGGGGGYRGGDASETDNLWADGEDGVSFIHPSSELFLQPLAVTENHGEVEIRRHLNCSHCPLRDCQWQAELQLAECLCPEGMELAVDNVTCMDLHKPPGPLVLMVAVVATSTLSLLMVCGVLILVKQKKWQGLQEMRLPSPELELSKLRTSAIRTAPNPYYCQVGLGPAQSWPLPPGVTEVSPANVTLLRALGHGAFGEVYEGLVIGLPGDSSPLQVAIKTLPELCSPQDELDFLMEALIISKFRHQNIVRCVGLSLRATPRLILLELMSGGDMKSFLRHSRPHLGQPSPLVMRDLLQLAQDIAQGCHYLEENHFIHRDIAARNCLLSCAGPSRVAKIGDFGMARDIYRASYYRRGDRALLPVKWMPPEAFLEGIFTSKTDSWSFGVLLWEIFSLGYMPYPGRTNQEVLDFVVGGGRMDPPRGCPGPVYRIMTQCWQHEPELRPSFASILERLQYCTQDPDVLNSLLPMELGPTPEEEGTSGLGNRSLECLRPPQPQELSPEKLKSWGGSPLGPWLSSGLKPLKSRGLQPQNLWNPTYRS

KinomeScan kinase panel [4] = biological target: T4, KinomeScan kinase panel (Homo sapiens, UniProt P36888); conditions: FLT3, 10 µM; read-out: score (%)
T4 construct: purchased DiscoveRx (KinomeScan)
T4 sequence (P36888 27-993): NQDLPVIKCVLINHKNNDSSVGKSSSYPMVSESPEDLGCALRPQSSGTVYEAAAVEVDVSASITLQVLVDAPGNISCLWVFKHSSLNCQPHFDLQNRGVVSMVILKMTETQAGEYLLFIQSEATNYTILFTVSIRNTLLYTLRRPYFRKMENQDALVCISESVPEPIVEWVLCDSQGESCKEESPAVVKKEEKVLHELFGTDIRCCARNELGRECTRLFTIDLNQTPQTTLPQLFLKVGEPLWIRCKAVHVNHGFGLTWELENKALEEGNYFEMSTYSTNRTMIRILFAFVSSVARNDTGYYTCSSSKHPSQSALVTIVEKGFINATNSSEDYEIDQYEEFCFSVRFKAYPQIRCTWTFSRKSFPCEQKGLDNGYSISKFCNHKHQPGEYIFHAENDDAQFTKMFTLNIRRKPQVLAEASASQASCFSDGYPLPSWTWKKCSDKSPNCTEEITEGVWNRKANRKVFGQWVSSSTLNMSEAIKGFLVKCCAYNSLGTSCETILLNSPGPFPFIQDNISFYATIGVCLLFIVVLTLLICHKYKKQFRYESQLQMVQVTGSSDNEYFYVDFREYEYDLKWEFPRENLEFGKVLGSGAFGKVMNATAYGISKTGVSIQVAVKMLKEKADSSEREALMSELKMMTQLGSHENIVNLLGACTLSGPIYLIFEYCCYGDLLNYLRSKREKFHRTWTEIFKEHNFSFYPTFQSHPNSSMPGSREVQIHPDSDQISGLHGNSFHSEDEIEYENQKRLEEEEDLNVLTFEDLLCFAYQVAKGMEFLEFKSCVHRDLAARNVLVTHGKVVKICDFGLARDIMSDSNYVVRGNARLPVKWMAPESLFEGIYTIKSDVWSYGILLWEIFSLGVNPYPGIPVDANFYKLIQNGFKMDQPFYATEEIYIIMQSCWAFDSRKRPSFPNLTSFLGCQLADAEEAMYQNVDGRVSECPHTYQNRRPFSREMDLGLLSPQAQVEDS

KinomeScan kinase panel [5] = biological target: T5, KinomeScan kinase panel (Homo sapiens, UniProt P09769); conditions: FGR, 10 µM; read-out: score (%)
T5 construct: purchased DiscoveRx (KinomeScan)
T5 sequence (P09769 whole entry): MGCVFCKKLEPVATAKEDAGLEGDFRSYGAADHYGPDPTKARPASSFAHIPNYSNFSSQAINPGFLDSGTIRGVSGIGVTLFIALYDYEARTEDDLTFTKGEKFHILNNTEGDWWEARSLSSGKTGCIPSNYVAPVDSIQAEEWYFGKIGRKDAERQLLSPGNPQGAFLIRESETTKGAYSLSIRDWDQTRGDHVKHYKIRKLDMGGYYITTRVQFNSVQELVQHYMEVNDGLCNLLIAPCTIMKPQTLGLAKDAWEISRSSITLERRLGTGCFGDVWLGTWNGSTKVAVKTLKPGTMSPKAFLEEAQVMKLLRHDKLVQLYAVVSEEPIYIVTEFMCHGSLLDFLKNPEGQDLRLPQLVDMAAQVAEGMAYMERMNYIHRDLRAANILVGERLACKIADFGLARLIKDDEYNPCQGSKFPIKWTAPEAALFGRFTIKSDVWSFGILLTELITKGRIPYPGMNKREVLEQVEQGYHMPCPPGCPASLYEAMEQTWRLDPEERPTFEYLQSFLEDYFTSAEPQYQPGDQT

KinomeScan kinase panel [6] = biological target: T6, KinomeScan kinase panel (Homo sapiens, UniProt Q00537); conditions: PCTK2, 10 µM; read-out: score (%)
T6 construct: purchased DiscoveRx (KinomeScan)
T6 sequence (Q00537 whole entry): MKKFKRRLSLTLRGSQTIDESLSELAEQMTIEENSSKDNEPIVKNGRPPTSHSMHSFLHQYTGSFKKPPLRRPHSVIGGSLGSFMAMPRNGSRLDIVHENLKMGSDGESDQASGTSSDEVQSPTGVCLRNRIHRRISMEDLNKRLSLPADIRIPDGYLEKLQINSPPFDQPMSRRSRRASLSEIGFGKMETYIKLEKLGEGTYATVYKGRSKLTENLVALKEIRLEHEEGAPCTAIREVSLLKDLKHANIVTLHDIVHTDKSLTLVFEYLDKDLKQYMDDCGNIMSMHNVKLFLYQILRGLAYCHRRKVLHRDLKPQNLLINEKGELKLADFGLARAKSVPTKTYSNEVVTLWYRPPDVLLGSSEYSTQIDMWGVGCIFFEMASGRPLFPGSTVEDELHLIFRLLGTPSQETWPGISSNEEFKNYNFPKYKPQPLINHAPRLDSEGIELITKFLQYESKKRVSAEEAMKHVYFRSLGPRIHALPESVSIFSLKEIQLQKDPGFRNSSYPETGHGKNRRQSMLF

KinomeScan kinase panel [7] = biological target: T7, KinomeScan kinase panel (Homo sapiens, UniProt Q7KZI7); conditions: MARK2, 10 µM; read-out: score (%)
T7 construct: purchased DiscoveRx (KinomeScan)
T7 sequence (Q7KZI7 whole entry): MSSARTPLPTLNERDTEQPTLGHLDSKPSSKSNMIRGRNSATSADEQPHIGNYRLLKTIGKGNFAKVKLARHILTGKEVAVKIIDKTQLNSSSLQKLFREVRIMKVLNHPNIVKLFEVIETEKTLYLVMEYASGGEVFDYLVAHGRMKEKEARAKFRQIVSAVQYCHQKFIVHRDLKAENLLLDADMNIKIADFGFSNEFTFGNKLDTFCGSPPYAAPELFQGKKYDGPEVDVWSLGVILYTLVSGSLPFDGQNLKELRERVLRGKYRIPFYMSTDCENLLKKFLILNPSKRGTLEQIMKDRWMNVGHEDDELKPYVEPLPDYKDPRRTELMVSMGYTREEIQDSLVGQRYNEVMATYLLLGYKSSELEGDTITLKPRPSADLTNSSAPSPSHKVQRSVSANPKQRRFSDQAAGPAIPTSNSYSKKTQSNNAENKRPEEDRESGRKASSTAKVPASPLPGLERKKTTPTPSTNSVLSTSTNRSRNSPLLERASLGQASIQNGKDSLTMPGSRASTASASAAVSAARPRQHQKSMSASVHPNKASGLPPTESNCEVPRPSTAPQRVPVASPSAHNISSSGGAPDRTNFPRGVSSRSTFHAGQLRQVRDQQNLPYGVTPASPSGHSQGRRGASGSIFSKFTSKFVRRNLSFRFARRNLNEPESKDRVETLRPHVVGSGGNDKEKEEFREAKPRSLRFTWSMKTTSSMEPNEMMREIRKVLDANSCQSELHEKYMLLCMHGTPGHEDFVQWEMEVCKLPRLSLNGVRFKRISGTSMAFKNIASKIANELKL

KinomeScan kinase panel [8] = biological target: T8, KinomeScan kinase panel (Homo sapiens, UniProt Q8N752); conditions: CSNK1A1L, 10 µM; read-out: score (%)
T8 construct: purchased DiscoveRx (KinomeScan)
T8 sequence (Q8N752 1-337): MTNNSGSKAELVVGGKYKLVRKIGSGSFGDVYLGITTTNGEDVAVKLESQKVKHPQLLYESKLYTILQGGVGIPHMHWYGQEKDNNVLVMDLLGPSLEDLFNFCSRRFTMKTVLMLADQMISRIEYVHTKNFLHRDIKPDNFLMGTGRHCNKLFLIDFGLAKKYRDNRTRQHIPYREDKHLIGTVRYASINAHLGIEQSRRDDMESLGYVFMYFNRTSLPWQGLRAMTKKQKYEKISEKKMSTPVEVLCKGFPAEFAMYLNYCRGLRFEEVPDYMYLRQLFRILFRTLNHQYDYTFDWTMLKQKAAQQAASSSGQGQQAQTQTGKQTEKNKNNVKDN

Question: How did the remaining binding at 10 µM (KinomeScan kinase panel [1]) turn out when `CCN1CCN(Cc2ccc(NC(=O)c3ccc(C)c(NC(=O)c4cncc(-c5cccs5)c4)c3)cc2C(F)(F)F)CC1` [ALW-II-41-27] was run?
Answer: The remaining binding at 10 µM was > 30%.

Question: And the remaining binding at 10 µM (KinomeScan kinase panel [2]; kinase TGFBR1, 10 µM)?
Answer: Its remaining binding at 10 µM is > 30%.

Question: What about the remaining binding at 10 µM (KinomeScan kinase panel [3]) of the same compound?
Answer: Its remaining binding at 10 µM is > 30%.

Question: And the remaining binding at 10 µM (KinomeScan kinase panel [4])?
Answer: The remaining binding at 10 µM was 0.65%.

Question: And the remaining binding at 10 µM (KinomeScan kinase panel [5])?
Answer: Its remaining binding at 10 µM is 0.2%.

Question: And the remaining binding at 10 µM (KinomeScan kinase panel [6])?
Answer: The remaining binding at 10 µM was > 30%.

Question: And the remaining binding at 10 µM (KinomeScan kinase panel [7])?
Answer: Its remaining binding at 10 µM is > 30%.

Question: What about the remaining binding at 10 µM (KinomeScan kinase panel [8]) of the same compound?
Answer: The remaining binding at 10 µM was > 30%.

Question: What does the source list for `CCN1CCN(Cc2ccc(NC(=O)c3ccc(C)c(/C=C/c4cnc5[nH]ccc5c4Cl)c3)cc2C(F)(F)F)CC1` [HG-6-63-01, (E)-3-(2-(4-chloro-1H-pyrrolo[2,3-b]pyridin-5-yl)vinyl)-N-(4-((4-ethylpiperazin-1-yl)methyl)-3-(trifluoromethyl)phenyl)-4-methylbenzamide]?
Answer: remaining binding at 10 µM (KinomeScan kinase panel [1]): > 30%; remaining binding at 10 µM (KinomeScan kinase panel [2]; TGFBR1, 10 µM): > 30%; remaining binding at 10 µM (KinomeScan kinase panel [3]): > 30%; remaining binding at 10 µM (KinomeScan kinase panel [4]): 0.1%; remaining binding at 10 µM (KinomeScan kinase panel [5]): 0.35%; remaining binding at 10 µM (KinomeScan kinase panel [6]): > 30%; remaining binding at 10 µM (KinomeScan kinase panel [7]): > 30%; remaining binding at 10 µM (KinomeScan kinase panel [8]): > 30%

Question: `CCN1CCN(Cc2ccc(NC(=O)c3ccc(C)c(C#Cc4cccnc4)c3)cc2C(F)(F)F)CC1` [XMD15-44] was tested. Which remaining binding at 10 µM (KinomeScan kinase panel [1]) did it give?
Answer: The remaining binding at 10 µM was > 30%.

Question: And the remaining binding at 10 µM (KinomeScan kinase panel [2]; kinase TGFBR1, 10 µM)?
Answer: Its remaining binding at 10 µM is 100%.

Question: And the remaining binding at 10 µM (KinomeScan kinase panel [3])?
Answer: The remaining binding at 10 µM was 4.5%.

Question: What about the remaining binding at 10 µM (KinomeScan kinase panel [4]) of the same compound?
Answer: The remaining binding at 10 µM was 0.25%.

Question: And the remaining binding at 10 µM (KinomeScan kinase panel [5])?
Answer: The remaining binding at 10 µM was 0%.

Question: What about the remaining binding at 10 µM (KinomeScan kinase panel [6]) of the same compound?
Answer: The remaining binding at 10 µM was 8.2%.

Question: What about the remaining binding at 10 µM (KinomeScan kinase panel [7]) of the same compound?
Answer: Its remaining binding at 10 µM is > 30%.

Question: And the remaining binding at 10 µM (KinomeScan kinase panel [8])?
Answer: Its remaining binding at 10 µM is > 30%.
